From patent US11203576B2, “Aurora kinase and Janus kinase inhibitors for prevention of graft versus host disease” (H. LEE MOFFITT CANCER CENTER AND RESEARCH INSTITUTE, INC., priority 2016, dated 2021)

Tests used:
[1] = test system: H3 Ser10 (target of Aurora); assay: H3 Ser10 phosphorylation in DC-allostimulated T-cells (flow cytometry); type: cell-based, human; settings: 5-day allogeneic DC stimulation; AJI 750 nM, alisertib 1.75 μM, TG101348 350 nM
Method: After 5 days, T cells were then harvested and directly fixed (Cytofix, BD Biosciences) for 10 min at 37° C. After washing with phosphate-buffered saline, the T cells were permeabilized with icecold methanol (90%, v/v) for at least 20 min at -20° C. The cells were stained for expression of CD3 and pH[…].

STAT3 (target of JAK2) = assay: STAT3 phosphorylation in T-cells (flow cytometry); type: cell-based, human; settings: in vitro, DC- or IL-6-stimulated, vs DMSO
Method: IL-6-induced pSTAT3 or IL-2-induced pSTAT5 (Y694) was measured by flow cytometry.

[2] = test system: xenogeneic GVHD (NSG mice transplanted with human PBMCs); assay: Xenogeneic GVHD model; type: in vivo
Description: After transplantation and treatment with either AJI-100 or vehicle control, human T cells were isolated from recipient mouse spleens at day +14, stained for pH3Ser^10 or pSTAT3 (+IL-6 stimulation), and analyzed as described.
NOD scid gamma (NSG) mice (male or female, 6-24 weeks old) were purchased from Jackson Laboratory (Bar Harbor, Me., USA) and raised per an IACUC-approved protocol in adherence to the NIH Guide for the Care and Use of Laboratory Animals. Mice received either (i) alisertib (30 mg/kg daily), TG101348 (45 mg/kg twice a day), a combination of alisertib and TG101348, or vehicle (methylcellulose) by oral gavage or (ii) AJI-100 (50 mg/kg daily) or vehicle (50% polyethylene glycol, 15% 2-hydroxypropyl-b-cyclodextrin, and 10% DMSO in sterile saline) ip from day 0 to day +14.
Mice were monitored for GVHD clinical scores (K. R. Cooke et al., An experimental model of idiopathic pneumonia syndrome after bone marrow transplantation: I. The roles of minor H antigens and endotoxin. Blood 88, 3230 (1996)), weight, and premoribund status. As indicated, mice were euthanized on day +14 to study recipient spleen Tconv, Tregs, TH1, TH17, B cells, and T-cell signal transduction. Human CD4^+ Treg (CD25+, CD127^−, Foxp3^+), Tconv(CD25^+, CD127^+), TH1, TH17, and CD19^+ B cells residing in recipient spleens were quantified by flow cytometry. T-cell pH3 ser10 and PSTAT3 were evaluated by flow cytometry. IL-17 ELISPOTs were performed using isolated human T cells from recipient mouse spleen as described above. Tissue samples were prepared, stained (Ventana Medical Systems, Tucson, Ariz.), and imaged (Vista, Calif., USA) to identify human T-cells as previously described. All vertebrate animal work was IACUC-approved.

Aurora kinase B = Aurora kinase B (Homo sapiens, UniProt Q96GD4); assay: Kinase target screen, panel of 140 kinases; type: biochemical; settings: compared with alisertib
Method: Allogeneic mixed leukocyte reactions (alloMLRs) are standard assays used to assess human T cell proliferation against polyclonal or antigen-specific stimuli. In alloMLRs consisting of human T cells and allogeneicmonocyte-derived dendritic cells (DCs), the JAK2 inhibitor TG101348 reduced alloreactive T cell proliferation at concentrations of 350 nM and greater as previously reported (FIG. 9A). […] Synergistic suppression of T cells allostimulated by DCs was achieved when TG101348 and alisertib were added together at a ratio of 1:5, respectively, with a calculated combination index (CI) of <1 using the Chou-Talalay method (FIG. 9A). […] The chemical analogs AJI-214 and AJI-100 were designed and synthesized at the Moffitt Cancer Center and shown to inhibit Aurora kinase A and JAK2 with similar potency. […] Because AJI-100 is tolerated in mouse models, a kinase target screen was performed on AJI-100 to verify its activity against Aurora kinase A and JAK2 among a panel of 140 kinases.

[3] = test system: T-cells allostimulated by dendritic cells (DC); assay: Allogeneic mixed leukocyte reaction (alloMLR), T-cell proliferation; type: cell-based, human
Method: Bulk donor T-cells were allostimulated with allogeneic DCs (DC:T-cell ratio of 1:30) as previously described (OneBlood, Tampa, Fla.)(15, 16, 20). […] As indicated, alloMLRs consisting of Treg depleted, naïve CD4^+ T-cells (Miltenyi Biotec Inc, San Diego, Calif.) were treated with a combination of ARL67156 (CD39 inhibitor, 125 μM, Sigma), AJI, or DMSO on day 0 to study the role of CD39 and ATP in this system. T-cell proliferation was measured on day 5 by a colorimetric assay (CellTiter 96 Aqueous One Solution Cell Proliferation Assay [MTS]; or CellTiter Blue, Promega, Madison, Wis.). Absorbance/optical density (OD) was analyzed at 490 nm or 590 nm, respectively. Proliferation (%)=(OD treated alloMLR−OD T-cells alone)/(OD DMSO alloMLR−OD T-cells alone)×100.

[4] = test system: human skin graft rejection by allogeneic PBMC; assay: Human skin xenograft rejection in NSG mice; type: in vivo; settings: 50 mg/kg daily i.p., + PBMCs, day +21
Method: Using the nondiagnostic mastectomy skin from consenting donors, a 1×1 cm skin graft was transplanted onto immunodeficient NSG mice dorsally. After 30 days of healing, 5×10^6 peripheral blood mononuclear cells (PBMC) from an HLA-disparate random donor was given by i.p. injection. A cohort of mice only received a skin graft without PBMCs, as negative rejection controls. The transplanted mice were treated with AJI-100 (50 mg/kg), a dual JAK2/Aurora A kinase inhibitor, or vehicle daily by i.p. injection. Mice were humanely euthanized on day +21 to assess human anti-human skin rejection pathology. […] Conversely, skin grafts from the mice who received Vehicle+PBMCs show diffuse lymphocytic infiltration of the dermis with exocytosis, a disrupted dermal-epidermal junction, and hyperkeratosis (grade III, FIG. 15B).

Solubility = type: physicochemical; settings: relative to the ortho-chloro analogue
[5] = day +14, 50 mg/kg daily, vs vehicle

Aurora kinase B, sequence (Q96GD4 whole entry): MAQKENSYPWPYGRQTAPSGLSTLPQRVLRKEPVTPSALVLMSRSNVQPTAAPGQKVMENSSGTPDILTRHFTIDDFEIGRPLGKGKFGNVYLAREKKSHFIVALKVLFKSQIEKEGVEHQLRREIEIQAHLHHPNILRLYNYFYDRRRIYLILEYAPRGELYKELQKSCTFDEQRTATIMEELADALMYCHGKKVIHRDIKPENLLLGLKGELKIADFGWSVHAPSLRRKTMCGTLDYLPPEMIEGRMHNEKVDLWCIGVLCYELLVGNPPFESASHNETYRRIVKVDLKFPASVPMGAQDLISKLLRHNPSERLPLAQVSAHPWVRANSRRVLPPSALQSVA

## NC(=O)c1ccc(Nc2ncc(F)c(Nc3ccccc3)n2)cc1 [bisanilinopyrimidine (II), 5-Fluoro-N4-phenyl-N2-[4-(4-carboxamide)phenyl]pyrimidine-2,4-diamine]
[1]
  phosphorylation of histone 3 serine 10 (pH3 Ser10) in T-cells: reducing the phosphorylation
STAT3 (target of JAK2)
  STAT3 (pSTAT3 Y705) phosphorylation in T-cells: less STAT3 phosphorylation
STAT3 (target of JAK2); listed as AJI-100
  STAT3 (pSTAT3 Y705) phosphorylation in T-cells: reducing the phosphorylation
[2]; 50 mg/kg daily i.p. day 0 to +14, 56 days of observation
  overall survival: 71.4%
[2]; AJI-100 50 mg/kg daily ip day 0 to +14, vs vehicle
  overall survival of the mice: significantly improved
[2]; [5]
  H3 ser10 phosphorylation in human T-cells harvested from mice: less H3 ser10 phosphorylation
  pSTAT3+ human T cells harvested from recipient spleens: significantly reduced
[2]; day +14, 50 mg/kg daily, vs vehicle, listed as AJI-100
  H3 ser10 phosphorylation in human T-cells harvested from mice: significantly reduced
[2]; day +14, vs vehicle
  GVHD severity (pathology) in liver and lung: significantly reduced
  Treg frequency in the liver: similar
  absolute number of Tregs in recipient spleens: significantly reduced
  absolute number of activated CD4+ Tconv in recipient spleens: significantly reduced
  absolute number of total CD4+ T cells in recipient spleens: significantly reduced
  absolute number of total spleen cells and human CD3+ T-cells in spleens: similar
  percentage of CD4+ alloreactive Tconv in the spleen: similar
  ratio of human Treg to CD4+ alloreactive/activated Tconv in recipient spleens: significantly increased
  relative amount of human Tregs in the spleen: significantly increased
  spleen-resident human TH1 T cells: significantly reduced
  spleen-resident human TH17 T cells: significantly reduced
  tissue-infiltrating human T cells in recipient liver (and lung): dramatically reduced
[2]; day +14, vs vehicle, listed as AJI-100
  tissue-infiltrating human T cells in recipient liver (and lung): significantly decreased
[2]; day +56
  surviving mice with limited fur/skin changes without significant weight loss: 60%
[2]; dosing day 0 to +14, vs vehicle
  onset and severity of GVHD: reduced the severity of GVHD
[2]; mouse, in vivo
  tolerability in mouse models: tolerated
[2]; surviving treated mice at day +56
  average GVHD clinical scores: < 2
[2]; vs vehicle
  CD8+ T cell and CD19+ B cell reconstitution (absolute numbers): suppressive effect
  frequencies of CD4+ and CD8+ T cells and CD19+ B cells: similar
Aurora kinase B
  ratio of Aurora kinase A to kinase B inhibition: greater than alisertib
  suppression of Aurora kinase B: slightly more potent suppression of Aurora kinase B than alisertib
[3]; Homo sapiens, single agent added once on day 0, proliferation on day 5, DC:T-cell ratio 1:30, read-out: IC50, T-cell proliferation in alloMLR
  IC50: 200 nM
[3]; single agent, nanomolar concentrations, vs DMSO
  suppression of T cells in alloMLRs: significant suppression
[4]
  skin graft rejection grade (Bejarano scoring system): grade I
Solubility
  solubility: enhancing its solubility
